Assay results taken from patent US8691822B2, “Dihydropteridinone derivatives, preparation process and pharmaceutical use thereof” (Jiangsu Hengrui Medicine Co., Ltd., priority 2009, dated 2014).

Each compound was assayed on human cervix cancer cells Hela (assay: Plk Cell Proliferation Inhibition Assay (CCK8, 72 hours)). Conditions: Hela cells highly expressing Plk.
Format: cell-based
Description: The following in vitro assay is to determine the activity of the compounds of the present invention for inhibiting the proliferation of human cervix cancer cells Hela, which has high expression of Plk.
The in vitro cellular assay described here is to determine the activity of the tested compounds for inhibiting the proliferation of cancer cells, which has high expression of Plk. The activity is represented by the […]. The general procedures for the assay are given as follows: The Hela cells highly expressing Plk (Institute of biochemistry and cell biology) were seeded to 96-well cell culture plate at a suitable concentration (exp 3000 cells/ml medium). The cells then were cultured in carbon dioxide (CO2) incubator and grew overnight. Then, the cell culture medium was replaced by fresh one with tested compounds added in it at serial concentrations (general 7 to 9 concentrations). Then the cells were put back to the incubator and cultured for continuous 72 hours. 72 hours later, the activity of the tested compounds for inhibiting the cell proliferation was determined by using CCK8 (cell counting kit-8, Dojindo, NO:CK04) method. IC50 value on tested cells were calculated by the data of inhibition rates of serial concentrations of the tested compounds.

Point of comparison: `CC[C@@H]1C(=O)N(C)c2cnc(Nc3ccc(C(=O)N[C@H]4C[C@@H]5CN(C)C[C@@H]5C4)c4c3OCC4)nc2N1C(C)C` [Example 24, (cis-endo)-N-[2-Methyl-3,3a,4,5,6,6a-hexahydro-1H-cyclopenta[c]pyrrol-5-yl]-7-[[(7R)-7-ethyl-8-isopropyl-5-methyl-6-oxo-7H-pteridin-2-yl]amino]-2,3-dihydrobenzofuran-4-carboxamide], IC50 2 nM. Against it:
- CC[C@@H]1C(=O)N(C)c2cnc(Nc3ccc(C(=O)NC4CCN(C)CC4)c4c3OC(C)(C)C4)nc2N1C1CCCC1 [Example 4, 7-[[(7R)-8-Cyclopentyl-7-ethyl-5-methyl-6-oxo-7H-pteridin-2-yl]amino]-2,2-dimethyl-N-(1-methyl-4-piperidyl)-3H-benzofuran-4-carboxamide] — the same, 2 nM
- CC[C@@H]1C(=O)N(C)c2cnc(Nc3ccc(C(=O)NC[C@H](O)CN4CCN(C)CC4)c4c3OCC4)nc2N1C(C)C [Example 32, 7-[[(7R)-7-Ethyl-8-isopropyl-5-methyl-6-oxo-7H-pteridin-2-yl]amino]-N-[(2S)-2-hydroxy-3-(4-methylpiperazin-1-yl)propyl]-2,3-dihydrobenzofuran-4-carboxamide] — 4.5-fold higher, 9 nM
- CC[C@@H]1C(=O)N(C)c2cnc(Nc3ccc(C(=O)NC[C@H]4CN5CCC[C@@H]5CO4)c4c3OCC4)nc2N1C1CCCC1 [Example 27, N-[[(3S,8aR)-3,4,6,7,8,8a-Hexahydro-1H-pyrrolo[2,1-c][1,4]oxazin-3-yl]methyl]-7-[[(7R)-8-cyclopentyl-7-ethyl-5-methyl-6-oxo-7H-pteridin-2-yl]amino]-2,3-dihydrobenzofuran-4-carboxamide] — 2-fold lower, 1 nM
- CC[C@@H]1C(=O)N(C)c2cnc(Nc3ccc(C(=O)NC[C@H](O)CN4CCN(CC5CC5)CC4)c4c3OCC4)nc2N1C1CCCC1 [Example 7, 7-[[(7R)-8-Cyclopentyl-7-ethyl-5-methyl-6-oxo-7H-pteridin-2-yl]amino]-N-[(2S)-3-[4-(cyclopropylmethyl)piperazin-1-yl]-2-hydroxy-propyl]-2,3-dihydrobenzofuran-4-carboxamide] — 1.5-fold higher, 3 nM
- CC[C@@H]1C(=O)N(C)c2cnc(Nc3ccc(C(=O)NCC4CN(C)CCO4)c4c3OCC4)nc2N1C1CCCC1 (stereo partly drawn) [Example 2, 7-[[(7R)-8-cyclopentyl-7-ethyl-5-methyl-6-oxo-7H-pteridin-2-yl]amino]-N-[(4-methylmorpholin-2-yl)methyl]-2,3-dihydrobenzofuran-4-carboxamide] — 4-fold higher, 8 nM
- CC[C@@H]1C(=O)N(C)c2cnc(Nc3ccc(C(=O)N[C@H]4CC[C@H](N5CCN(C)CC5)CC4)c4c3OC(C)(C)C4)nc2N1C1CCCC1 [Example 17, 7-[[(7R)-8-Cyclopentyl-7-ethyl-5-methyl-6-oxo-7H-pteridin-2-yl]amino]-2,2-dimethyl-N-[(trans)-4-(4-methylpiperazin-1-yl)cyclohexyl]-3H-benzofuran-4-carboxamide] — 5-fold higher, 10 nM
- CC[C@@H]1C(=O)N(C)c2cnc(Nc3ccc(C(=O)NC[C@@H](O)CN4CCN(C)CC4)c4c3OCC4)nc2N1C(C)C [Example 33, 7-[[(7R)-7-Ethyl-8-isopropyl-5-methyl-6-oxo-7H-pteridin-2-yl]amino]-N-[(2R)-2-hydroxy-3-(4-methylpiperazin-1-yl)propyl]-2,3-dihydrobenzofuran-4-carboxamide] — 3.5-fold higher, 7 nM
- CC[C@@H]1C(=O)N(C)c2cnc(Nc3ccc(C(=O)NC[C@@H]4CN5CCC[C@@H]5CO4)c4c3OCC4)nc2N1C1CCCC1 [Example 28, N-[[(3R,8aR)-3,4,6,7,8,8a-Hexahydro-1H-pyrrolo[2,1-c][1,4]oxazin-3-yl]methyl]-7-[[(7R)-8-cyclopentyl-7-ethyl-5-methyl-6-oxo-7H-pteridin-2-yl]amino]-2,3-dihydrobenzofuran-4-carboxamide] — 1.5-fold higher, 3 nM
- CC[C@@H]1C(=O)N(C)c2cnc(Nc3ccc(C(=O)N[C@H]4C[C@@H]5CN(C)C[C@@H]5C4)c4c3OCC4)nc2N1C1CCCC1 [Example 11, (cis-endo)-N-[2-Methyl-3,3a,4,5,6,6a-hexahydro-1H-cyclopenta[c]pyrrol-5-yl]-7-[[(7R)-8-cyclopentyl-7-ethyl-5-methyl-6-oxo-7H-pteridin-2-yl]amino]-2,3-dihydrobenzofuran-4-carboxamide] — 2-fold lower, 1 nM
- CC[C@@H]1C(=O)N(C)c2cnc(Nc3ccc(C(=O)NC4CCN(C)CC4)c4c3OC(C)C4)nc2N1C1CCCC1 (stereo partly drawn) [Example 30, 7-[[(7R)-8-Cyclopentyl-7-ethyl-5-methyl-6-oxo-7H-pteridin-2-yl]amino]-2-methyl-N-(1-methyl-4-piperidyl)-2,3-dihydrobenzofuran-4-carboxamide] — 2-fold higher, 4 nM
- CC[C@@H]1C(=O)N(C)c2cnc(Nc3ccc(C(=O)NC[C@H](O)CN4CCN(C)CC4)c4c3OCC4)nc2N1C1CCCC1 [Example 8, 7-[[(7R)-8-Cyclopentyl-7-ethyl-5-methyl-6-oxo-7H-pteridin-2-yl]amino]-N-[(2S)-2-hydroxy-3-(4-methylpiperazin-1-yl)propyl]-2,3-dihydrobenzofuran-4-carboxamide] — 1.5-fold higher, 3 nM
- CC[C@@H]1C(=O)N(C)c2cnc(Nc3ccc(C(=O)N[C@H]4CC[C@H](N5CCN(CC6CC6)CC5)CC4)c4c3OCC4)nc2N1C1CCCC1 [Example 34, 7-[[(7R)-8-Cyclopentyl-7-ethyl-5-methyl-6-oxo-7H-pteridin-2-yl]amino]-N-[(trans)-4-[4-(cyclopropylmethyl)piperazin-1-yl]cyclohexyl]-2,3-dihydrobenzofuran-4-carboxamide] — 2.9-fold lower, 0.7 nM
- CC[C@@H]1C(=O)N(C)c2cnc(Nc3ccc(C(=O)N[C@H]4C[C@@H]5CN(C)C[C@@H]5C4)c4c3OC(C)(C)C4)nc2N1C1CCCC1 [Example 9, (cis-endo)-N-[2-Methyl-3,3α,4,5,6,6α-hexahydro-1H-cyclopenta[c]pyrrol-5-yl]-7-[[(7R)-8-cyclopentyl-7-ethyl-5-methyl-6-oxo-7H-pteridin-2-yl]amino]-2,2-dimethyl-3H-benzofuran-4-carboxamide] — the same, 2 nM
- CC[C@@H]1C(=O)N(C)c2cnc(Nc3ccc(C(=O)N[C@@H]4C[C@@H](OC(C)=O)[C@H](N(C)C)C[C@H]4OC(C)=O)c4c3OCC4)nc2N1C1CCCC1 [Example 3, [(1R,2R,4R,5R)-4-Acetoxy-2-[[7-[[(7R)-8-cyclopentyl-7-ethyl-5-methyl-6-oxo-7H-pteridin-2-yl]amino]-2,3-dihydrobenzofuran-4-carbonyl]amino]-5-dimethylamino-cyclohexyl]acetate] — 3.5-fold higher, 7 nM
- CC[C@@H]1C(=O)N(C)c2cnc(Nc3ccc(C(=O)NC[C@@H](CN4CCN(C)CC4)OC)c4c3OCC4)nc2N1C(C)C [Example 39, 7-[[(7R)-7-Ethyl-8-isopropyl-5-methyl-6-oxo-7H-pteridin-2-yl]amino]-N-[(2S)-2-methoxy-3-(4-methylpiperazin-1-yl)propyl]-2,3-dihydrobenzofuran-4-carboxamide] — 3-fold higher, 6 nM
- CC[C@@H]1C(=O)N(C)c2cnc(Nc3ccc(C(=O)N[C@H]4CC[C@H](N5CCN(CC6CC6)CC5)CC4)c4c3OC(C)(C)C4)nc2N1C1CCCC1 [Example 16, 7-[[(7R)-8-Cyclopentyl-7-ethyl-5-methyl-6-oxo-7H-pteridin-2-yl]amino]-N-[(trans)-4-[4-(cyclopropylmethyl)piperazin-1-yl]cyclohexyl]-2,2-dimethyl-3H-benzofuran-4-carboxamide] — 15-fold higher, 30 nM
- CC[C@@H]1C(=O)N(C)c2cnc(Nc3ccc(C(=O)N[C@H]4CC[C@H](N5CCN(C)CC5)CC4)c4c3OCC4)nc2N1C1CCCC1 [Example 19, 7-[[(7R)-8-Cyclopentyl-7-ethyl-5-methyl-6-oxo-7H-pteridin-2-yl]amino]-N-[(trans)-4-(4-methylpiperazin-1-yl)cyclohexyl]-2,3-dihydrobenzofuran-4-carboxamide] — 1.5-fold higher, 3 nM
- CC[C@@H]1C(=O)N(C)c2cnc(Nc3ccc(C(=O)NC4CCN(C)CC4)c4c3OC(COC)C4)nc2N1C1CCCC1 (stereo partly drawn) [Example 40, 7-[[(7R)-8-Cyclopentyl-7-ethyl-5-methyl-6-oxo-7H-pteridin-2-yl]amino]-2-(methoxymethyl)-N-(1-methyl-4-piperidyl)-2,3-dihydrobenzofuran-4-carboxamide] — the same, 2 nM
- CC[C@@H]1C(=O)N(C)c2cnc(Nc3ccc(C(=O)NC[C@@H]4CN(C)CCO4)c4c3OCC4)nc2N1C1CCCC1 [Example 15, 7-[[(7R)-8-Cyclopentyl-7-ethyl-5-methyl-6-oxo-7H-pteridin-2-yl]amino]-N-[[(2R)-4-methylmorpholin-2-yl]methyl]-2,3-dihydrobenzofuran-4-carboxamide] — 1.5-fold higher, 3 nM
- CC[C@@H]1C(=O)N(C)c2cnc(Nc3ccc(C(=O)NC[C@@H](CN4CCN(C)CC4)OC)c4c3OCC4)nc2N1C1CCCC1 [Example 38, 7-[[(7R)-8-Cyclopentyl-7-ethyl-5-methyl-6-oxo-7H-pteridin-2-yl]amino]-N-[(2S)-2-methoxy-3-(4-methylpiperazin-1-yl)propyl]-2,3-dihydrobenzofuran-4-carboxamide] — the same, 2 nM
- CC[C@@H]1C(=O)N(C)c2cnc(Nc3ccc(C(=O)N[C@H]4C[C@@H]5CN(CC6CC6)C[C@@H]5C4)c4c3OC(C)(C)C4)nc2N1C1CCCC1 [Example 10, N-[(cis-endo)-2-(Cyclopropylmethyl)-3,3a,4,5,6,6a-hexahydro-1H-cyclopenta[c]pyrrol-5-yl]-7-[[(7R)-8-cyclopentyl-7-ethyl-5-methyl-6-oxo-7H-pteridin-2-yl]amino]-2,2-dimethyl-3H-benzofuran-4-carboxamide] — 2.5-fold higher, 5 nM
